Results: the kinase profiling compilation of Christmann-Franck et al. (2016)

Assays:
[1] = test system: AKT1 (human), P31749 [S473D]; assay: radiometric filter-binding kinase assay
EPHB4 (human) = EPHB4 (human) (UniProt P54760); assay: radiometric filter-binding kinase assay
MAP3K5 (human) = MAP3K5 (human) (UniProt Q99683); assay: radiometric filter-binding kinase assay
MAPK1 (human) = MAPK1 (human) (UniProt P28482); assay: radiometric filter-binding kinase assay
MAPK13 (human) = MAPK13 (human) (UniProt O15264); assay: radiometric filter-binding kinase assay
MAPK9 (human) = MAPK9 (human) (UniProt P45984); assay: radiometric filter-binding kinase assay
MAPKAPK3 (human) = MAPKAPK3 (human) (UniProt Q16644); assay: radiometric filter-binding kinase assay
MARK3 (human) = MARK3 (human) (UniProt P27448); assay: radiometric filter-binding kinase assay
PIM1 (human) = PIM1 (human) (UniProt P11309); assay: radiometric filter-binding kinase assay
PRKACA (human) = PRKACA (human) (UniProt P17612); assay: radiometric filter-binding kinase assay
RIPK2 (human) = RIPK2 (human) (UniProt O43353); assay: radiometric filter-binding kinase assay
RPS6KA5 KD1 KD2 (human) = RPS6KA5 KD1 KD2 (human) (UniProt O75582); assay: radiometric filter-binding kinase assay
SRC (human) = SRC (human) (UniProt P12931); assay: radiometric filter-binding kinase assay
ABL1 (human) = ABL1 (human) (UniProt P00519); assay: KINOMEscan competition binding; details: compound 10.0 µM
ALK (human) = ALK (human) (UniProt Q9UM73); assay: KINOMEscan competition binding; details: compound 10.0 µM
BMX (human) = BMX (human) (UniProt P51813); assay: KINOMEscan competition binding; details: compound 10.0 µM
CDK11B (human) = CDK11B (human) (UniProt P21127); assay: KINOMEscan competition binding; details: compound 10.0 µM
CDK8 (human) = CDK8 (human) (UniProt P49336); assay: KINOMEscan competition binding; details: compound 10.0 µM
CSF1R (human) = CSF1R (human) (UniProt P07333); assay: KINOMEscan competition binding; details: compound 10.0 µM
[2] = test system: EGFR (human), P00533 [G719C]; assay: KINOMEscan competition binding; details: compound 10.0 µM
EPHA4 (human) = EPHA4 (human) (UniProt P54764); assay: KINOMEscan competition binding; details: compound 10.0 µM
FGFR2 (human) = FGFR2 (human) (UniProt P21802); assay: KINOMEscan competition binding; details: compound 10.0 µM
FGFR4 (human) = FGFR4 (human) (UniProt P22455); assay: KINOMEscan competition binding; details: compound 10.0 µM
FLT3 (human) = FLT3 (human) (UniProt P36888); assay: KINOMEscan competition binding; details: compound 10.0 µM
HCK (human) = HCK (human) (UniProt P08631); assay: KINOMEscan competition binding; details: compound 10.0 µM
INSR (human) = INSR (human) (UniProt P06213); assay: KINOMEscan competition binding; details: compound 10.0 µM
KIT (human) = KIT (human) (UniProt P10721); assay: KINOMEscan competition binding; details: compound 10.0 µM
[3] = test system: KIT (human), P10721 [V559D/T670I]; assay: KINOMEscan competition binding; details: compound 10.0 µM
MAP4K4 (human) = MAP4K4 (human) (UniProt O95819); assay: KINOMEscan competition binding; details: compound 10.0 µM
MAPK11 (human) = MAPK11 (human) (UniProt Q15759); assay: KINOMEscan competition binding; details: compound 10.0 µM
PTK2 (human) = PTK2 (human) (UniProt Q05397); assay: KINOMEscan competition binding; details: compound 10.0 µM
RPS6KA5 KD1 (human) = RPS6KA5 KD1 (human) (UniProt O75582); assay: KINOMEscan competition binding; details: compound 10.0 µM
SRMS (human) = SRMS (human) (UniProt Q9H3Y6); assay: KINOMEscan competition binding; details: compound 10.0 µM
STK10 (human) = STK10 (human) (UniProt O94804); assay: KINOMEscan competition binding; details: compound 10.0 µM
[4] = biological target: TYK2 JH1 catalytic (human) (UniProt P29597); assay: KINOMEscan competition binding; details: compound 10.0 µM

Sequence of RIPK2 (human) (O43353 whole entry, looked up): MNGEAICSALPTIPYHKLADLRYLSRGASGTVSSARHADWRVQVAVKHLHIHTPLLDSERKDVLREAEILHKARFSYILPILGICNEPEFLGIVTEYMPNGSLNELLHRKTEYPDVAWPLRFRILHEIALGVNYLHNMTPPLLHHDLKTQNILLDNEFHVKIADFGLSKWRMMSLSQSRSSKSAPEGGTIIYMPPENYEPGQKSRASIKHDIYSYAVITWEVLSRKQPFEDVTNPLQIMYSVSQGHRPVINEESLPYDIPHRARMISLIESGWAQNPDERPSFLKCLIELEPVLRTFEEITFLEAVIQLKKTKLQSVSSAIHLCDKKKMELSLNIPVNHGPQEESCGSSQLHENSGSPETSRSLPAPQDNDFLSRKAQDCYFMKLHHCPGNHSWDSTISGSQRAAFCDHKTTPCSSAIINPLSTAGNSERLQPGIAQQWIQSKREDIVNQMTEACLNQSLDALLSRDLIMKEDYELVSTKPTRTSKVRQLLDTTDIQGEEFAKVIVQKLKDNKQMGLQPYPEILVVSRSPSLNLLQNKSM
Sequence of SRC (human) (P12931 whole entry, looked up): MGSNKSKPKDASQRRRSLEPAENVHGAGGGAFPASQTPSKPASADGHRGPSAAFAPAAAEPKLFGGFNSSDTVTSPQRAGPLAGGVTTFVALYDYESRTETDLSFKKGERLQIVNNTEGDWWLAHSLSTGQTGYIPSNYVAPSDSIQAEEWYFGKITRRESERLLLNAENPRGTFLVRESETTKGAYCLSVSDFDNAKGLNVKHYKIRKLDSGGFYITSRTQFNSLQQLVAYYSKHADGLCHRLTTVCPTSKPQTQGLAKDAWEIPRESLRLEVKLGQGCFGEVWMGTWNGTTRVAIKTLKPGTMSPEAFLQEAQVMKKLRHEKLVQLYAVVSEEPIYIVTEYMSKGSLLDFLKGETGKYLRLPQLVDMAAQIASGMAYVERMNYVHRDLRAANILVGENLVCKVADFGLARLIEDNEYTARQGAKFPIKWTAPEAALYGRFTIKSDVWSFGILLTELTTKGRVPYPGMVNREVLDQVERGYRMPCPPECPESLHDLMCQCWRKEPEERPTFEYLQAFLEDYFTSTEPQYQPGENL
Sequence of MAPK9 (human) (P45984 whole entry, looked up): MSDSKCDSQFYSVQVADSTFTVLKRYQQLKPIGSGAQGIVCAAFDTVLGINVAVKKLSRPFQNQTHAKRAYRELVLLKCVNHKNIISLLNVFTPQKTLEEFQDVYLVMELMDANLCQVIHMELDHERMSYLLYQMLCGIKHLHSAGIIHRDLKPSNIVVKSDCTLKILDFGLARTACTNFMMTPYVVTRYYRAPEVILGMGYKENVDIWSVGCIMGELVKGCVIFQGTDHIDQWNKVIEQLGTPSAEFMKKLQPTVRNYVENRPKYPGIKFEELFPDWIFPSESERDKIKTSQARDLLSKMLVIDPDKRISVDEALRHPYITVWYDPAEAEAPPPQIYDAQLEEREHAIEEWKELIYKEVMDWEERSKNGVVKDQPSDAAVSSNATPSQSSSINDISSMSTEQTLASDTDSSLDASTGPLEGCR
Sequence of PIM1 (human) (P11309 whole entry, looked up): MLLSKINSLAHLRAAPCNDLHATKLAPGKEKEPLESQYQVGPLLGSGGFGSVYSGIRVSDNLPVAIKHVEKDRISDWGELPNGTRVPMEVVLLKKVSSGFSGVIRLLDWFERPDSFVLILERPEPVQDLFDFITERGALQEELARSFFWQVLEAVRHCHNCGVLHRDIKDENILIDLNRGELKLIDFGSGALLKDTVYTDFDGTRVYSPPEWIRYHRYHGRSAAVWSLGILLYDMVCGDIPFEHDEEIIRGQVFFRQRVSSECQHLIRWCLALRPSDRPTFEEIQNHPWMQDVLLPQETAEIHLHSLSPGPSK
Sequence of EPHB4 (human) (P54760 whole entry, looked up): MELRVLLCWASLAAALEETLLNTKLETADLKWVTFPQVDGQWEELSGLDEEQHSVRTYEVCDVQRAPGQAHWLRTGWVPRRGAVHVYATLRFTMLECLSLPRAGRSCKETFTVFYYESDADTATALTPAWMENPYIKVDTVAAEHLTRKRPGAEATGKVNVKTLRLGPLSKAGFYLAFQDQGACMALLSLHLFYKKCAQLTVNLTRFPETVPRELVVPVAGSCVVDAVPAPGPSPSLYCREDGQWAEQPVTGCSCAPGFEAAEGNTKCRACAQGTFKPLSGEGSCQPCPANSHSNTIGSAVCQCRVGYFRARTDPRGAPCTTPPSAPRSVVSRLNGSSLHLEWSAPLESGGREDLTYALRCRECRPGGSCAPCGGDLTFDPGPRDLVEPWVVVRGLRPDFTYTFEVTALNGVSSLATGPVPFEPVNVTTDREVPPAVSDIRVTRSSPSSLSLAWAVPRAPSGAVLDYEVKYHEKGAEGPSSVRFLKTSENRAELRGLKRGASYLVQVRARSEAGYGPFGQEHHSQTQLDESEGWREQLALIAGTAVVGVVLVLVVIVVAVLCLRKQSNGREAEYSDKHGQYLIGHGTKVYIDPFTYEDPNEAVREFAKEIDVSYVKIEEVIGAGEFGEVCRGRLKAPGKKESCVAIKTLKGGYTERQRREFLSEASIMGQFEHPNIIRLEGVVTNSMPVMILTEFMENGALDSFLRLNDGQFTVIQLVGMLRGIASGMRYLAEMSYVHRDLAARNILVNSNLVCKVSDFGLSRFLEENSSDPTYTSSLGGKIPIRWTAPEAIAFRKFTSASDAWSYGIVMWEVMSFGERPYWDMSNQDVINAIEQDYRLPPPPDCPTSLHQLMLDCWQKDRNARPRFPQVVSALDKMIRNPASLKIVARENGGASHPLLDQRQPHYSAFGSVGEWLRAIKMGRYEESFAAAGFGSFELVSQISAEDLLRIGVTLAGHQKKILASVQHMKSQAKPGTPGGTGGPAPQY
Sequence of RPS6KA5 KD1 KD2 (human) (O75582 whole entry, looked up): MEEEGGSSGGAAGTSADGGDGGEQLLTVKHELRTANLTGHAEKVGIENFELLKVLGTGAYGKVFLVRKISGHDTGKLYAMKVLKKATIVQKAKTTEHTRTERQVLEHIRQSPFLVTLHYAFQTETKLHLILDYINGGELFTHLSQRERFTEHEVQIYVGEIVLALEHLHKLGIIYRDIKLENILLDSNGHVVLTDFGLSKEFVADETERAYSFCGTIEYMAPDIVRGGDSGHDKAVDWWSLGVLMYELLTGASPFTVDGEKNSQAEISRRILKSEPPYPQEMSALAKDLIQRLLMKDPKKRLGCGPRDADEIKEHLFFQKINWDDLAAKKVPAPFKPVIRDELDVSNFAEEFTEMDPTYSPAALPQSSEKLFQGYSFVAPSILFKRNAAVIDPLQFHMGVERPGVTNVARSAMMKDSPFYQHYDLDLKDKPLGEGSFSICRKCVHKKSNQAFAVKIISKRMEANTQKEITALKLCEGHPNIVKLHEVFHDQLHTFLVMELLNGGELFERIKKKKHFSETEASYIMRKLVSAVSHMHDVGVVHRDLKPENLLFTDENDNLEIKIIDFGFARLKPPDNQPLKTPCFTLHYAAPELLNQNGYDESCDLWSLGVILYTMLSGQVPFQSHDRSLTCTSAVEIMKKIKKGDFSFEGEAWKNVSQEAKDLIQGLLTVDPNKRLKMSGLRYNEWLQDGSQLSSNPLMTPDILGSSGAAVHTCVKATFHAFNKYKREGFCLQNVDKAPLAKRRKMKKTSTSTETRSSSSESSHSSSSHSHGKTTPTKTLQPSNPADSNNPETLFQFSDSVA
Sequence of AKT1 (human), P31749 [S473D] (P31749 whole entry S473D, looked up): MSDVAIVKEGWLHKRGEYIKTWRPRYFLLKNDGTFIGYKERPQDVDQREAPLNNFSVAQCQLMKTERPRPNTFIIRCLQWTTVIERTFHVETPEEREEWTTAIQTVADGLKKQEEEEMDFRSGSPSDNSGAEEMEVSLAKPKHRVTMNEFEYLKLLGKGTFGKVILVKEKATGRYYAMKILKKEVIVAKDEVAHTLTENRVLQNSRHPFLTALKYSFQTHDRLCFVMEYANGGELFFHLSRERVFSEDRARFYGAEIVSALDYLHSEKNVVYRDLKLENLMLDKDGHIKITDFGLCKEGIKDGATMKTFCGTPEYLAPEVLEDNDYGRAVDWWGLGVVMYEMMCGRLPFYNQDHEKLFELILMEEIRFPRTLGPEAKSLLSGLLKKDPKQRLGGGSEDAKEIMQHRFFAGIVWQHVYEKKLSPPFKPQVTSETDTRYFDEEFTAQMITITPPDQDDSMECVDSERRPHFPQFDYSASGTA
Sequence of MAPK1 (human) (P28482 whole entry, looked up): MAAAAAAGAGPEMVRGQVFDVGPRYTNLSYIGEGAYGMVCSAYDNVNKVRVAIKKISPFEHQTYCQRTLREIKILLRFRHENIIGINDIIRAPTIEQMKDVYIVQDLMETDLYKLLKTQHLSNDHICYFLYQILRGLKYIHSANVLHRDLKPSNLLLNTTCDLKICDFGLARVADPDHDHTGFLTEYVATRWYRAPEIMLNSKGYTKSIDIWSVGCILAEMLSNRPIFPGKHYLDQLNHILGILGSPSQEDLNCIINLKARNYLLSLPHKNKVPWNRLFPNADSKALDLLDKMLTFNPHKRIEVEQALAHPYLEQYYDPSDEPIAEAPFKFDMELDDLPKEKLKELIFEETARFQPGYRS
Sequence of MAPK13 (human) (O15264 whole entry, looked up): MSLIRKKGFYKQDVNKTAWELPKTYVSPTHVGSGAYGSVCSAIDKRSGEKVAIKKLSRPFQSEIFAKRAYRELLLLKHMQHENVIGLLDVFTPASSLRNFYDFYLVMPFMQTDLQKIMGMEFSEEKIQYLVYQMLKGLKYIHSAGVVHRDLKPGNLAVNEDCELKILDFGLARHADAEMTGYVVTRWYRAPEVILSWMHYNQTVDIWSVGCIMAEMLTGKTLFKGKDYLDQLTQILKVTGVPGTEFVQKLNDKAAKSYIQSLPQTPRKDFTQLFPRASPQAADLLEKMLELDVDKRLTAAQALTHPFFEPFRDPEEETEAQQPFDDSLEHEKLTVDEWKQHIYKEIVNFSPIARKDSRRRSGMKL
Sequence of RPS6KA5 KD1 (human) (O75582 whole entry, looked up): as the sequence (O75582 whole entry, looked up) above

Structure (SMILES): CCN1CCN(Cc2ccc(NC(=O)c3ccc(C)c(Oc4ccnc5[nH]ccc45)c3)cc2C(F)(F)F)CC1
- residual activity ([1]; compound 0.1 µM): 105%
- residual activity ([1]; compound 1.0 µM): 100%
- residual activity ([1]; compound 10.0 µM): 69%
- residual activity (EPHB4 (human); compound 0.1 µM): 97.3%
- residual activity (EPHB4 (human); compound 1.0 µM): 92.6%
- residual activity (EPHB4 (human); compound 10.0 µM): 42.7%
- residual activity (MAP3K5 (human); compound 0.1 µM): 111%
- residual activity (MAP3K5 (human); compound 1.0 µM): 105%
- residual activity (MAP3K5 (human); compound 10.0 µM): 76.5%
- residual activity (MAPK1 (human); compound 0.1 µM): 101%
- residual activity (MAPK1 (human); compound 1.0 µM): 102%
- residual activity (MAPK1 (human); compound 10.0 µM): 106%
- residual activity (MAPK13 (human); compound 0.1 µM): 98.7%
- residual activity (MAPK13 (human); compound 1.0 µM): 33.7%
- residual activity (MAPK13 (human); compound 10.0 µM): 7.2%
- residual activity (MAPK9 (human); compound 0.1 µM): 90.8%
- residual activity (MAPK9 (human); compound 1.0 µM): 21.8%
- residual activity (MAPK9 (human); compound 10.0 µM): 4.89%
- residual activity (MAPKAPK3 (human); compound 0.1 µM): 90.1%
- residual activity (MAPKAPK3 (human); compound 1.0 µM): 82.3%
- residual activity (MAPKAPK3 (human); compound 10.0 µM): 96.7%
- residual activity (MARK3 (human); compound 0.1 µM): 112%
- residual activity (MARK3 (human); compound 1.0 µM): 99.5%
- residual activity (MARK3 (human); compound 10.0 µM): 105%
- residual activity (PIM1 (human); compound 0.1 µM): 120%
- residual activity (PIM1 (human); compound 1.0 µM): 117%
- residual activity (PIM1 (human); compound 10.0 µM): 87.4%
- residual activity (PRKACA (human); compound 0.1 µM): 100%
- residual activity (PRKACA (human); compound 1.0 µM): 93.4%
- residual activity (PRKACA (human); compound 10.0 µM): 76.2%
- residual activity (RIPK2 (human); compound 0.1 µM): 103%
- residual activity (RIPK2 (human); compound 1.0 µM): 78.9%
- residual activity (RIPK2 (human); compound 10.0 µM): 13.5%
- residual activity (RPS6KA5 KD1 KD2 (human); compound 0.1 µM): 81.2%
- residual activity (RPS6KA5 KD1 KD2 (human); compound 1.0 µM): 45.8%
- residual activity (RPS6KA5 KD1 KD2 (human); compound 10.0 µM): 21.4%
- residual activity (SRC (human); compound 0.1 µM): 66.5%
- residual activity (SRC (human); compound 1.0 µM): 9.72%
- residual activity (SRC (human); compound 10.0 µM): 2.65%
- kinase still bound, per cent of control (ABL1 (human)): 0.1%
- kinase still bound, per cent of control (ALK (human)): 0.55%
- kinase still bound, per cent of control (BMX (human)): 2.4%
- residual activity (CDK11B (human)): 0.35%
- residual activity (CDK8 (human)): 3.9%
- kinase still bound, per cent of control (CSF1R (human)): 0%
- kinase still bound, per cent of control [2]: 12%
- kinase still bound, per cent of control (EPHA4 (human)): 5.8%
- kinase still bound, per cent of control (FGFR2 (human)): 1.4%
- kinase still bound, per cent of control (FGFR4 (human)): 0.45%
- kinase still bound, per cent of control (FLT3 (human)): 0.15%
- kinase still bound, per cent of control (HCK (human)): 0.4%
- kinase still bound, per cent of control (INSR (human)): 30%
- kinase still bound, per cent of control (KIT (human)): 0%
- kinase still bound, per cent of control [3]: 0.05%
- kinase still bound, per cent of control (MAP4K4 (human)): 0%
- kinase still bound, per cent of control (MAPK11 (human)): 0%
- kinase still bound, per cent of control (PTK2 (human)): 23%
- kinase still bound, per cent of control (RPS6KA5 KD1 (human)): 4.7%
- kinase still bound, per cent of control (SRMS (human)): 4.6%
- kinase still bound, per cent of control (STK10 (human)): 0%
- kinase still bound, per cent of control [4]: 0%
